# Assay results taken from patent US9096601B2 (CSPC Zhongqi Pharmaceutical Technology (Shijiazhuang) Co., …, priority 2010, dated 2015).
# pIC50: −log10 of the molar value.
# How the values were obtained:
# c-SRC = c-SRC (Homo sapiens (Human), UniProt P12931); assay: Kinase inhibitory activity, isotopic labeling (γ-33P-ATP); assay type: biochemical; conditions: compound at 10 μM
# MET = MET (Homo sapiens (Human), UniProt P08581); assay: as above; assay type: biochemical; conditions: compound at 10 μM
# PDGFRα = PDGFRα (Homo sapiens (Human), UniProt P16234); assay: as above; assay type: biochemical; conditions: compound at 10 μM
# FLT3 = FLT3 (Homo sapiens (Human), UniProt P36888); assay: as above; assay type: biochemical; conditions: compound at 10 μM
# Sequence of FLT3 (P36888 27-993): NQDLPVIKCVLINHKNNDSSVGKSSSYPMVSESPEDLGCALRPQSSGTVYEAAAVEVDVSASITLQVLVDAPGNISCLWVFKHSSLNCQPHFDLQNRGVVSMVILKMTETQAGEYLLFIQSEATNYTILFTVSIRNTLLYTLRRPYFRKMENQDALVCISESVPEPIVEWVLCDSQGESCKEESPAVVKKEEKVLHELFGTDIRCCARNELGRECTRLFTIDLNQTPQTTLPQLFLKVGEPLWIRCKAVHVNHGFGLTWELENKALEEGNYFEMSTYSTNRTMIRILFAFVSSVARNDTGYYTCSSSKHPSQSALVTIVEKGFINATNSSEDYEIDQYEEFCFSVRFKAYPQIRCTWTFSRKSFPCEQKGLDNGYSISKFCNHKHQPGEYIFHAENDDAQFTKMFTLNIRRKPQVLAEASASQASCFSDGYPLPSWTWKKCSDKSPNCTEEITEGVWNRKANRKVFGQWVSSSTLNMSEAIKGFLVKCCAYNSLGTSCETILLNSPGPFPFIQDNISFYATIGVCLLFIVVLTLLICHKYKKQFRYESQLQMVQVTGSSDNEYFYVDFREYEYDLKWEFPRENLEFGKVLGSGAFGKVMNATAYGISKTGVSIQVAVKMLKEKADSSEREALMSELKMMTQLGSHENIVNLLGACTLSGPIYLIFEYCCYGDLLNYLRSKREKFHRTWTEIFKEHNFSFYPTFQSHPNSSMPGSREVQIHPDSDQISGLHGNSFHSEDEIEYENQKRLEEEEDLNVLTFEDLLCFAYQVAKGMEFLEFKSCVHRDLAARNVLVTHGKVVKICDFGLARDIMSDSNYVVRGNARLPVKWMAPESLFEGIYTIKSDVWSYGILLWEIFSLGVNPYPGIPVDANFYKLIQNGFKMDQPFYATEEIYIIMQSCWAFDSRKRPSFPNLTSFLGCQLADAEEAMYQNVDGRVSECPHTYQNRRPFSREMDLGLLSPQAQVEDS
# VEGFR2 = VEGFR2 (Homo sapiens (Human), UniProt P35968); assay: as above; assay type: biochemical; conditions: ATP 90 μM (Km)
# Outline: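 IC50s derive from inhibitory rates over a compound dilution series, with substrate phosphorylation quantified by scintillation counting on washed Filtermat A membranes. Reactions contained 5-10 mU kinase, substrate, γ-33P-ATP, 10 mM magnesium acetate in MOPS pH 7.0/EDTA/MnCl2 buffer; staurosporine served as reference.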
# ALK = ALK (Homo sapiens (Human), UniProt Q9UM73); assay: as above; assay type: biochemical; conditions: compound at 10 μM
# Sequence of ALK (Q9UM73 19-1620): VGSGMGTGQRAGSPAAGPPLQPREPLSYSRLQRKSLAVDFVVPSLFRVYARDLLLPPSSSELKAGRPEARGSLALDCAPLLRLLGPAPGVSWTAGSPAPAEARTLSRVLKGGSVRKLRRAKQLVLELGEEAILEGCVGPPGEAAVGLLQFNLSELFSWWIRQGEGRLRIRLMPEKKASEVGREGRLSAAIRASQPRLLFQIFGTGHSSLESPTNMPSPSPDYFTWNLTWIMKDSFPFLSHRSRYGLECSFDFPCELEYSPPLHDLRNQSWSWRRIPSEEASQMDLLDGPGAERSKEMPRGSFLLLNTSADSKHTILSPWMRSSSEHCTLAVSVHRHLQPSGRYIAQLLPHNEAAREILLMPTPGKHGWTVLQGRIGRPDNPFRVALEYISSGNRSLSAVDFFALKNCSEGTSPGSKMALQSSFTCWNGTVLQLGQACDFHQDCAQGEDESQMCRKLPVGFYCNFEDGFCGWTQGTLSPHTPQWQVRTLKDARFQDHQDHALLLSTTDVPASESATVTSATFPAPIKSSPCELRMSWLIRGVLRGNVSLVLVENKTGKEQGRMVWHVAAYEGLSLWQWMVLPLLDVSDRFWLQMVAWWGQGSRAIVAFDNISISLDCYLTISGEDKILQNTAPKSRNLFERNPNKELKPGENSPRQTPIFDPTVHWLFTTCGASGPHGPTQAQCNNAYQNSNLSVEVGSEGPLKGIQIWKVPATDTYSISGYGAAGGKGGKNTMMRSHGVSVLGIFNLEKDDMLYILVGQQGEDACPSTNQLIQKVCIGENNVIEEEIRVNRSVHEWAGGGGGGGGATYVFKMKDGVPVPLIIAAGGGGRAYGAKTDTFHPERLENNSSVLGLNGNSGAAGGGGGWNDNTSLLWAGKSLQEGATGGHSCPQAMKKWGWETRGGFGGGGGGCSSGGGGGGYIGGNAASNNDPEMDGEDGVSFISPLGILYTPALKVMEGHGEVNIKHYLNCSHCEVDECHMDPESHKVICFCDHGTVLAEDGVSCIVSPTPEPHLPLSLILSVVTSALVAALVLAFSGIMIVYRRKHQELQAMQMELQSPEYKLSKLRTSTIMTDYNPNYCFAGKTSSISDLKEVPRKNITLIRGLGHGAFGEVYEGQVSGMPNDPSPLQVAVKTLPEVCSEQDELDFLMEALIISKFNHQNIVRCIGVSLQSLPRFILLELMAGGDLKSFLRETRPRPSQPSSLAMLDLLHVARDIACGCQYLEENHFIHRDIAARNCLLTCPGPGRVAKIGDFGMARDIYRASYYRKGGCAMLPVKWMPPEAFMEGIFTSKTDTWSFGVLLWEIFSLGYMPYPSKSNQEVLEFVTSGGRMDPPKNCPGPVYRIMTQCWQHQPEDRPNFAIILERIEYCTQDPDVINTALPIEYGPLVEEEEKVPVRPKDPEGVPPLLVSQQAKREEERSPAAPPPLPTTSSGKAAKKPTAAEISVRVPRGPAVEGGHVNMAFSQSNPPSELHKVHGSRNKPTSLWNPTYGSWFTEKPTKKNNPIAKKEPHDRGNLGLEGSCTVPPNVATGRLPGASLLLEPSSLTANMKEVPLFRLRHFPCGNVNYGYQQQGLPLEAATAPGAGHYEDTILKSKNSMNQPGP
# BTK = BTK (Homo sapiens (Human), UniProt Q06187); assay: as above; assay type: biochemical; conditions: compound at 10 μM
# Sequence of BTK (Q06187 whole entry): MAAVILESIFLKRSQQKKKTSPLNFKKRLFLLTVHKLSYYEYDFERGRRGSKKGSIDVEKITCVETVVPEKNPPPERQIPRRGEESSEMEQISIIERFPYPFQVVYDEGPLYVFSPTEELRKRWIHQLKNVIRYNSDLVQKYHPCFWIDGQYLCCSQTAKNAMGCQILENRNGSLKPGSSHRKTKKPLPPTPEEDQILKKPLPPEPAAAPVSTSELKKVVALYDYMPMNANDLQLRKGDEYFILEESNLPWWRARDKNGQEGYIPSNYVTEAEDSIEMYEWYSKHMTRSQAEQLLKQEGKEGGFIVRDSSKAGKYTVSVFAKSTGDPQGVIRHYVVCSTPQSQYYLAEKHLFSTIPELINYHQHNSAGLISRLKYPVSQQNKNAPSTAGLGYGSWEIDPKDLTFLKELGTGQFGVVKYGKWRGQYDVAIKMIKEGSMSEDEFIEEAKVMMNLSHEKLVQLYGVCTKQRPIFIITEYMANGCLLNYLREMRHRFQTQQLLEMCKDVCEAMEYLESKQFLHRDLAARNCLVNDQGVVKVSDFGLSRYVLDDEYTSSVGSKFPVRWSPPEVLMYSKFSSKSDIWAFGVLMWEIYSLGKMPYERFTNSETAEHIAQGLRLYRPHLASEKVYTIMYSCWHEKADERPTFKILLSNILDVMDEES
# c-KIT = c-KIT (Homo sapiens (Human), UniProt P10721); assay: as above; assay type: biochemical; conditions: compound at 10 μM
# Sequence of c-KIT (P10721 26-976): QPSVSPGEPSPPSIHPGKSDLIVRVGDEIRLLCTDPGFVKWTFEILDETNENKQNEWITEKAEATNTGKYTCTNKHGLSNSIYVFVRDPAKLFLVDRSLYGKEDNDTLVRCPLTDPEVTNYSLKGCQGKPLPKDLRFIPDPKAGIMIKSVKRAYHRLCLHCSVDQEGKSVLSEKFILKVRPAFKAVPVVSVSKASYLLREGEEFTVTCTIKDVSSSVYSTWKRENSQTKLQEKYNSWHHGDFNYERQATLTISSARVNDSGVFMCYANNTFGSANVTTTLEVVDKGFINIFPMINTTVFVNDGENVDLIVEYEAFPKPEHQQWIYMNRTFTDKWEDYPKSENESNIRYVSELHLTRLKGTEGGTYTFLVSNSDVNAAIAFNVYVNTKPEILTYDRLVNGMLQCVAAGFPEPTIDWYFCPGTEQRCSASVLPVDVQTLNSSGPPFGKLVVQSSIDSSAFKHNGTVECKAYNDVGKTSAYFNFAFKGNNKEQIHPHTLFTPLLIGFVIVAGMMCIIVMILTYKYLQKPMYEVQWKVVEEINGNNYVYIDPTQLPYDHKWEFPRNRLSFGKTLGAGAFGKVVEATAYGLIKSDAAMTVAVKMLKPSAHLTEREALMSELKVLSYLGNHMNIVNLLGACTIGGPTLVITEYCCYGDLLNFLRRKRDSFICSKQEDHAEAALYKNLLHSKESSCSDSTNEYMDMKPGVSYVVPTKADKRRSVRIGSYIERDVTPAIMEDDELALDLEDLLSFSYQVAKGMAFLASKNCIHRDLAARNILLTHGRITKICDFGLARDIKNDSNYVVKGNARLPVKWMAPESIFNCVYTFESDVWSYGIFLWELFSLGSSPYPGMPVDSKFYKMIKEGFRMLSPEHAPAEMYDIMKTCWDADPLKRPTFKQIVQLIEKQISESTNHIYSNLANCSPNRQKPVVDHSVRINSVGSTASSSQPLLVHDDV
# [1] = system: colon cancer cell strain HCT116; assay: In-vitro tumor cell proliferation inhibition, MTT; assay type: cell-based, human; conditions: 72 hours
# [2] = system: malignant melanoma cell strain A375; assay: In-vitro tumor cell proliferation inhibition, MTT; assay type: cell-based, human; conditions: 72 hours
# [3] = system: breast carcinoma cell strain MDA-MB-468; assay: In-vitro tumor cell proliferation inhibition, MTT; assay type: cell-based, human; conditions: 72 hours
# [4] = system: gastric cancer cell strain MK-45; assay: In-vitro tumor cell proliferation inhibition, MTT; assay type: cell-based, human; conditions: 72 hours, read-out: MK45 (IC50)
# [5] = system: acute myelogenous leukemia cell strain MV4-11; assay: In-vitro tumor cell proliferation inhibition, MTT; assay type: cell-based, human; conditions: 72 hours
# [6] = system: colon cancer cell strain SW480; assay: In-vitro tumor cell proliferation inhibition, MTT; assay type: cell-based, human; conditions: 72 hours
# [7] = system: liver cancer cell strain Hep G2; assay: In-vitro tumor cell proliferation inhibition, MTT; assay type: cell-based, human; conditions: 72 hours, read-out: HEPG2 (IC50)
# [8] = system: squamous cell carcinoma cell strain A431; assay: In-vitro tumor cell proliferation inhibition, MTT; assay type: cell-based, human; conditions: 72 hours
# Outline: (§1)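 A431, HCC827, SW620 and BT474 cells (HCC827 seeded at 6×10^4 cells/ml) treated overnight-after-plating with graded compound concentrations for 72 h at 37° C; MTT read at 570 nm. Inhibition calculated versus untreated control, triplicate wells, ≥3 repeats; reported as IC50 or inhibitory rate.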
# [9] = system: colon cancer cell strain SW620; assay: In-vitro tumor cell proliferation inhibition, MTT; assay type: cell-based, human; conditions: 72 hours
# Outline: as §1
# [10] = system: chronic granulocytic leukemia cell strain K562; assay: In-vitro tumor cell proliferation inhibition, MTT; assay type: cell-based, human; conditions: 72 hours
# [11] = system: breast carcinoma cell strain BT474; assay: In-vitro tumor cell proliferation inhibition, MTT; assay type: cell-based, human; conditions: 72 hours
# Outline: as §1
# Sequence of c-SRC (P12931 whole entry, looked up): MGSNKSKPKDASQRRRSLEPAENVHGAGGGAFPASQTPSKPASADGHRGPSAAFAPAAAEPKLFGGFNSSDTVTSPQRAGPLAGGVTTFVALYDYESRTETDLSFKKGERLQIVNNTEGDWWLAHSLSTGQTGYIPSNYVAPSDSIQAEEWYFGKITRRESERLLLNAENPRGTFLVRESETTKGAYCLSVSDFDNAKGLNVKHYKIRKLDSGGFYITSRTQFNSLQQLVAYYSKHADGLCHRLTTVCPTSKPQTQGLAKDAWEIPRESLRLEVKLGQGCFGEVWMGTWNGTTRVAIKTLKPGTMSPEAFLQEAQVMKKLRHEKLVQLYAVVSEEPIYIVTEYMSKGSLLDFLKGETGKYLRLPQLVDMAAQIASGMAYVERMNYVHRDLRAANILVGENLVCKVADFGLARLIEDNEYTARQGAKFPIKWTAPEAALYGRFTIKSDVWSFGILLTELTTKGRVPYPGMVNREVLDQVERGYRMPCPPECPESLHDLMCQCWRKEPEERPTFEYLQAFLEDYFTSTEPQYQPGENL
SMILES,The kinase activity inhibitory rate (%) by the tested compounds at 10 μM c-SRC (c-SRC),The kinase activity inhibitory rate (%) by the tested compounds at 10 μM MET (MET),The kinase activity inhibitory rate (%) by the tested compounds at 10 μM PDGFRα (PDGFRα),The kinase activity inhibitory rate (%) by the tested compounds at 10 μM FLT3 (FLT3),pIC50 (VEGFR2),The kinase activity inhibitory rate (%) by the tested compounds at 10 μM ALK (ALK),The kinase activity inhibitory rate (%) by the tested compounds at 10 μM BTK (BTK),The kinase activity inhibitory rate (%) by the tested compounds at 10 μM c-KIT (c-KIT),pIC50 [1],pIC50 [2],pIC50 [3],pIC50 [4],pIC50 [5],pIC50 [6],pIC50 [7],pIC50 [8],pIC50 [9],pIC50 [10],pIC50 [11]
CC(C)n1c(Nc2ccc(Br)cc2)nc2cnc(Nc3ccc(N4CCN(C)CC4)cc3)nc21 [Compounds 8-15],97%,45%,94%,90%,8.40,40%,95%,94%,5.66,6.11,5.64,6.15,6.71,< 5.00,5.11,5.03,5.52,6.52,5.72
CC(C)n1c(Nc2cccc(C(F)(F)F)c2)nc2cnc(Nc3ccc(N4CCN(C)CC4)cc3)nc21 [Compounds 8-16],90%,93%,39%,45%,< 6.00,17%,57%,62%,6.12,5.51,5.71,< 6.00,5.32,5.19,4.98,5.23,6.06,5.60,5.86
COc1cccc(Nc2nc3cnc(Nc4ccc(N5CCN(C)CC5)cc4)nc3n2C(C)C)c1 [Compounds 8-17],99%,52%,72%,86%,< 6.00,35%,100%,89%,6.09,6.72,6.11,6.18,6.16,< 5.00,< 5.00,5.07,< 6.00,8.52,6.20
COc1ccc(Nc2nc3cnc(Nc4ccc(N5CCN(C)CC5)cc4)nc3n2C(C)C)cc1 [Compounds 8-18],93%,7%,60%,75%,7.68,13%,56%,76%,5.20,5.19,5.50,5.82,6.74,< 5.00,< 5.00,5.20,5.40,5.91,5.67
CC(C)n1c(Nc2ccc(NC(=O)Nc3ccc(F)c(Cl)c3)cc2)nc2cnc(Nc3ccc(N4CCN(C)CC4)cc3)nc21 [Compounds 8-21],98%,99%,100%,78%,< 6.00,97%,92%,101%,6.11,6.14,6.05,5.88,6.55,< 5.00,5.05,5.24,5.65,5.87,5.80
CC(C)n1c(Nc2ccc(C(=O)Nc3cccc(F)c3)cc2)nc2cnc(Nc3ccc(N4CCN(C)CC4)cc3)nc21 [Compounds 8-22],98%,69%,43%,87%,< 6.00,70%,63%,10%,5.74,5.89,5.76,6.29,6.55,< 5.00,< 5.00,5.26,5.72,6.04,5.76
CN1CCN(c2ccc(Nc3ncc4nc(Nc5ccccc5)n(C5CC5)c4n3)cc2)CC1 [Compounds 8-23],83%,1%,28%,68%,< 6.00,3%,30%,26%,< 5.00,5.50,5.28,5.55,6.62,< 5.00,< 5.00,5.15,< 5.00,5.28,5.17
CN1CCN(c2ccc(Nc3ncc4nc(Nc5ccccc5)n(C)c4n3)cc2)CC1 [Compounds 8-24],75%,0%,29%,75%,< 6.00,8%,14%,48%,5.86,5.62,5.02,5.09,6.54,< 5.00,< 5.00,5.02,< 5.00,5.85,5.62
CN1CCN(c2ccc(Nc3ncc4nc(Nc5ccccc5)[nH]c4n3)cc2)CC1 [Compounds 8-25],78%,0%,21%,32%,< 6.00,13%,45%,8%,< 5.00,< 5.00,< 5.00,5.27,5.10,< 5.00,< 5.00,< 5.00,< 5.00,< 5.00,5.00
